Measured values taken from paper doi:10.1101/2025.08.19.670962, “Structural basis for binding of RILPL1 to TMEM55B reveals a lysosomal platform for adaptor assembly through a conserved TBM motif” (bioRxiv, 2025).
Entries after “also recorded” stand apart in the source; their conditions may differ.

What follows are sequences tested on WT TMEM55B region 80-166 (assay: In vitro pulldown of untagged TMEM55B with His-tagged bait peptides). Settings: 10 μM bait, 10 μM prey, Ni2+-agarose, 20 mM Tris pH 8.0, 300 mM NaCl, 20 mM imidazole, 15 minutes; SDS-PAGE, Coomassie; qualitative.
Type: binding
Source text: (§1) Figure 5: In vitro pulldowns of TMEM55B with TBM peptides. (A) Domain organization of TMEM55B interactors depicting the sequence context of the TBM. Regions that are α-helical have been drawn as cylinders; α/βfolds are shown as rectangles; and unstructured segments are zigzag lines. (B) Cartoon depiction of the in vitro pulldown strategy using His-tagged peptides. […] As a control, the R151E variant of TMEM55B was used, which abolishes the interactions with RILPL1 (bottom panel). […] Protein/peptide concentrations were 10μM (see Methods) and visualization was enabled by Coomassie Brilliant Blue G250.
(§2) Given that the TBMs reside in flexible regions of the adaptor proteins (Figure 5A), peptides should be able to mimic their interactions with TMEM55B. Peptides corresponding to the potential TBMs were synthesized with an N-terminal hexahistidine tag to enable in vitro pulldowns of TMEM55B (80-166; Figure 5B). Slightly extended peptides beyond the minimal TBMs were generated to preclude any structural or conformational restrictions on the interaction with TMEM55B. The peptide TBM from RILPL1 was used as a positive control, and the mutant R151E™ of TMEM55B provided a negative control. Peptides run on conventional SDS-PAGE gels are generally not visible in this assay.
In vitro pulldowns were conducted using hexahistidine tagged peptides of interacting proteins as bait, as described in dx.doi.org/10.17504/protocols.io.dm6gpqk91lzp/v2. If not stated otherwise 10μM of bait peptide or the hexahistidine tagged PH domain of OCRL was mixed with 10μM of prey TMEM55B80-166 or TMEM55B80-160 in 1.5 mL centrifuge tubes with 25 μl Ni^2+-agarose resin in a final volume of 1ml of binding buffer (20 mM Tris pH 8.0, 300 mM NaCl, 20mM Imidazole, 10 mM β-mercapotoethanol). The reaction mixture was subjected to gentle shaking for 15 minutes. The resin was collected by gentle centrifugation (1,000 rpm) and washed 3 times with 1 ml of the binding buffer. Following release of proteins from the resin with 50μl elution buffer (20 mM Tris-Cl pH 8.0, 300 mM NaCl, 200mM imidazole), samples were subjected to SDS-PAGE and stained with Coomassie Brilliant Blue[26].
In the case of “HHHHHHGSDDLEQATEALDS [WDR81, His-tagged WDR81 657-668 TBM peptide used as pulldown bait]”, the “pulldown of untagged WT TMEM55B (80-166) by His-tagged bait” value (“pulldown of untagged WT TMEM55B” below) is reported as “interact with TMEM55B”.
For “HHHHHHGSGYTEQGQEALQHL [His-tagged RILPL1 peptide, RILPL1 391-403 TBM peptide with N-terminal hexahistidine tag; direct pulldown, ITC]”, the “pulldown of untagged WT TMEM55B” value was “clear band”.
In the case of “HHHHHHGSTAEEATEATEG [JIP4, His-tagged JIP4 887-897 TBM peptide used as pulldown bait]”, the “pulldown of untagged WT TMEM55B” value is reported as “interact with TMEM55B”.
In the case of “HHHHHHGSVQEAEETLLID [OCRL, His-tagged peptide corresponding to the TBM of OCRL, residues 65-75]”, the “pulldown of untagged WT TMEM55B” value is reported as “failed to pulldown TMEM55B; also recorded: did not significantly interact”.
“HHHHHHSQSTEEATEATEVPD [JIP3, His-tagged JIP3 889-903 TBM peptide used as pulldown bait]” was tested, and the “pulldown of untagged WT TMEM55B” value was “interact with TMEM55B”.

The sequences below were run on R151E variant of TMEM55B (assay: In vitro pulldown of TMEM55B R151E variant with His-tagged bait peptides (negative control)). Settings: 10 μM bait, 10 μM prey, Ni2+-agarose, 20 mM Tris pH 8.0, 300 mM NaCl, 20 mM imidazole, SDS-PAGE, Coomassie, qualitative.
Type: binding
Source text: as §1
as §2, with “assay. […]” for “assay.”
“HHHHHHGSGYTEQGQEALQHL [His-tagged RILPL1 peptide, RILPL1 391-403 TBM peptide with N-terminal hexahistidine tag; direct pulldown, ITC]” was tested, and the “pulldown of R151E variant of TMEM55B by His-tagged bait” value was “abolished”.
